Experimental data: ChEMBL document CHEMBL2157940, “Low molecular weight phosphotyrosine protein phosphatases as emerging targets for the design of novel therapeutic agents” (J Med Chem, 2012)

Assays:
[1] = Inhibition of Mycobacterium tuberculosis LMW-PTP
[2] = target: T1, Low molecular weight phosphotyrosine protein phosphatase (Bos taurus) (UniProt P11064); assay: Inhibition of bovine kidney LMW-PTPase at 400 uM using pNPP substrate
T1 sequence (whole entry): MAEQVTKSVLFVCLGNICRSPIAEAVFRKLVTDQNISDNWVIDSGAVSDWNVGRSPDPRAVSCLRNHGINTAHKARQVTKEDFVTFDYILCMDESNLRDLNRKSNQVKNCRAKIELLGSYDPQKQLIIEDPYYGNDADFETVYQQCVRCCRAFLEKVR

[3] = target: T2, Low molecular weight phosphotyrosine protein phosphatase (Homo sapiens, UniProt P24666); assay: Inhibition of human LMW-PTPase isoform 1
T2 sequence (P24666 whole entry): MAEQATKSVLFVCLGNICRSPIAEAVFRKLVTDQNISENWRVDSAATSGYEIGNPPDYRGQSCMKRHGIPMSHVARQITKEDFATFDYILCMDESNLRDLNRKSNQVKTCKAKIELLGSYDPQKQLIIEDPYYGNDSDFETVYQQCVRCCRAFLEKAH

[4] = target: T2, Low molecular weight phosphotyrosine protein phosphatase; assay: Inhibition of human LMW-PTPase isoform 2
[5] = target: T3, Tyrosine-protein phosphatase non-receptor type 1 (Homo sapiens, UniProt P18031); assay: Inhibition of human PTP1B
T3 sequence (P18031 whole entry): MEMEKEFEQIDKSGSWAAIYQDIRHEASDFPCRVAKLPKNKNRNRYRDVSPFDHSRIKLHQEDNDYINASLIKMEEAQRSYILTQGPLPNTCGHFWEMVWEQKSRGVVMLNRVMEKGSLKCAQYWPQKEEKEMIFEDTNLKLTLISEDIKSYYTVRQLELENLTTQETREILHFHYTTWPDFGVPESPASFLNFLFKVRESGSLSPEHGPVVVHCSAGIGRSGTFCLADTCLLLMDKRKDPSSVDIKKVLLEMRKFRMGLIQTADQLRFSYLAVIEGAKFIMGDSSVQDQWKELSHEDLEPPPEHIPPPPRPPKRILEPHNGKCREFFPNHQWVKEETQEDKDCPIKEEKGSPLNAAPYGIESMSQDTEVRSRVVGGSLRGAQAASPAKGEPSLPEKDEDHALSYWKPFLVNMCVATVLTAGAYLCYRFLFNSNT

[6] = target: T1, Low molecular weight phosphotyrosine protein phosphatase (Bos taurus); assay: Activation of bovine kidney LMW-PTPase at 400 uM using pNPP substrate

`C/C(=C1\C=CC=N1)c1ccc(-c2ccc[nH]2)o1` showed an IC50 [1] of 9.4 µM.

Compound `O=C(CCc1ccc(O)cc1)c1c(O)cc(O)cc1O` has an inhibition [2] of 14%.

`O=c1c(O)c(-c2ccc(O)cc2O)oc2cc(O)cc(O)c12` gave an inhibition [2] of 35%.

With `O=C(O)c1ccc(COc2cccc(/C=C3\S/C(=N\c4ccccc4)N(Cc4ccc(C(=O)O)cc4)C3=O)c2)cc1` the IC50 [3] was 0.5 µM and the IC50 [4] was 0.22 µM.

For `Nc1ccccc1CCP(=O)(O)O`, the IC50 [3] was 250 µM and the IC50 [4] was 1400 µM.

For `Nc1ccccc1/C=C/P(=O)(O)O`, the IC50 [3] was 5300 µM and the IC50 [4] was 13000 µM.

Compound `Oc1cc(O)c2c(c1)OC(c1ccc(O)c(O)c1)C(O)C2` (configuration not stated) has an inhibition [2] of 14%.

With `O=c1c(O)c(-c2cc(O)c(O)c(O)c2)oc2cc(O)cc(O)c12` the inhibition [2] was 14%.

For `O=P(O)(O)CCc1cncc2cc[nH]c12`, the IC50 [3] was 1790 µM and the IC50 [4] was 2760 µM.

In the case of `O=P(O)(O)CCc1cccc2ccccc12`, the IC50 [3] is reported as 14000 µM and the IC50 [4] is reported as 10000 µM.

`C[C@@H]1O[C@@H](OC[C@H]2O[C@@H](Oc3c(-c4ccc(O)c(O)c4)oc4cc(O)cc(O)c4c3=O)[C@H](O)[C@@H](O)[C@@H]2O)[C@H](O)[C@H](O)[C@H]1O` showed an inhibition [2] of 14%.

Work on `Nc1ccncc1CCP(=O)(O)O` yielded an IC50 [3] of 300 µM and an IC50 [4] of 2210 µM.

`O=C(O)c1ccc(COc2ccc(/C=C3\S/C(=N\c4ccccc4)N(Cc4ccc(C(=O)O)cc4)C3=O)cc2)cc1` gave an IC50 [5] of 0.55 µM and an IC50 [3] of 5.8 µM.

In the case of `O=c1c(O)c(-c2ccc(O)c(O)c2)oc2cc(O)cc(O)c12`, the fold change (FC) [6] is reported as 2.6.

For `CCCCCCCCCCCCC[C@H]1OC(=O)[C@H](COCc2ccccc2)NC(=O)[C@H]([C@@H](C)O)NC(=O)[C@H](C(C)C)NC(=O)[C@H]1C`, the IC50 [1] was 8.8 µM.
